The results in this text go back to the NIST ThermoML archive (doi:10.1016/j.tca.2011.02.016).

± gives the expanded uncertainty stated by the source.

A short description of series [1]: molar heat capacity at constant pressure. The note with it: 298.15 K; 101.33 kPa; Liquid; Small sample (50 mg) DSC.
For series [2] the following is noted: 298.15 K; 101.33 kPa; Liquid; Pycnometric method.

A word on the mass density: it is the mass of a sample divided by its volume. For the compound `Cn1cc[n+](CCO)c1.N#C[N-]C#N` [3-(2-hydroxyethyl)-1-methyl-1H-imidazol-3-ium dicyanoazanide], in series [1], the “molar heat capacity at constant pressure” value is 231.85 ± 3.9 J/K/mol. In addition, the mass density in series [2] amounted to 1120 ± 10 kg/m3.
